21 compounds from patent US20250388582A1, “NOVEL BICYCLIC HETEROARYL COMPOUND AND USE THEREOF” (ILDONG PHARMACEUTICAL CO., LTD., priority 2022, published 2025) can be followed below.

Molecules are shown by their SMILES.

The target of data set [1] is T1, PIKFYVE (Homo sapiens, UniProt Q9Y2I7).
T1 construct: host or cells: HEK293 (ATCC, CRL-1573)
Briefly: NanoBRET TE Intracellular Kinase Assay, interaction of PIKFYVE and compounds in HEK293 cells. It counts as cell-based. The following applies: IC50 class from BRET; HEK293 cells expressing PIKFYVE-NanoLuc; 2 hours incubation. A digest of the protocol: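 HEK293 cells transiently expressing a PIKFYVE-NanoLuc fusion were incubated 2 h at 37 °C, 5% CO2 with compound plus NanoBRET tracer. BRET was read after adding Nano-Glo substrate, giving intracellular target engagement by tracer displacement.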
Background: In BRET a luciferase serves as donor, and the signal depends on an acceptor being close.

Data set [2] deals with T2, human GST-PIKFYVE (Homo sapiens, UniProt Q9Y2I7).
T2 construct: GST; purchased Carna biosciences 11-118
Kind of data set: ADP-Glo kinase assay, enzyme inhibition activity against human PIKFYVE (Carna biosciences). It counts as biochemical. The following applies: inhibitory activity at final compound concentration 10 nM; 1 hour at room temperature. A digest of the protocol: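 Human GST-PIKFYVE (glutathione Sepharose-purified) was reacted with substrate and ATP for 1 h at room temperature in 50 mM MOPS, 1 mM DTT, pH 7.2, with compound at 10 nM final. ADP formed was read by ADP-Glo luminescence; inhibition was calculated against no-enzyme (100%) and no-compound (0%) controls.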
For orientation: In ADP-Glo the light output rises with the ADP produced.

The nature of data set [3]: Microsomal metabolic stability assay. It counts as in vitro ADME, human or CD1 male mouse. The following applies: Clint class; 1 μM compound, 0.5 mg/ml microsomes, NADPH, UDPGA, Alamethicin; species not given. As to the method: The microsomal metabolic stability assay was performed using pooled human or CD1 male mouse interspecies microsomes. Supplemental cofactors (NADPH, UDPGA) and microsomal membrane pore-forming factor (Alamethicin) were added to promote cytochrome P450 (CYP), UGT reactivity to the target compound. Test compounds (1 μM incubation concentration) and microsomes (0.5 mg/ml incubation concentration) were diluted in 0.1 M phosphate buffer, pH 7.4, and incubated (37° C.). The reaction was initiated by the addition of NADPH (1 mM), UDPGA (1 mM) and Alamethicin (25 μg/mg). The incubation times were 0, 5, 15, 30, and 45 minutes, and at each time point, the reaction was terminated by adding acetonitrile containing internal standard (IS)(1:3 ratio). The plate was then sealed, centrifuged (3000 rpm, 20 min, 4° C.), and the supernatant was analyzed by LC-MS/MS. Hepatic extraction ratio values were calculated from the measured in vitro clearance and Intrinsic clearance (Clint) values were calculated from the assay results, and the respective Clint values were categorized into Low, Medium, and High categories based on the reference document (ref. Prostaglandins & other lipid mediators 136 (2018): 90-95).

One may read the IC50 as the concentration needed to halve the response being measured. Low readings indicate greater potency, high ones weaker potency.

T2 sequence (Q9Y2I7 whole entry): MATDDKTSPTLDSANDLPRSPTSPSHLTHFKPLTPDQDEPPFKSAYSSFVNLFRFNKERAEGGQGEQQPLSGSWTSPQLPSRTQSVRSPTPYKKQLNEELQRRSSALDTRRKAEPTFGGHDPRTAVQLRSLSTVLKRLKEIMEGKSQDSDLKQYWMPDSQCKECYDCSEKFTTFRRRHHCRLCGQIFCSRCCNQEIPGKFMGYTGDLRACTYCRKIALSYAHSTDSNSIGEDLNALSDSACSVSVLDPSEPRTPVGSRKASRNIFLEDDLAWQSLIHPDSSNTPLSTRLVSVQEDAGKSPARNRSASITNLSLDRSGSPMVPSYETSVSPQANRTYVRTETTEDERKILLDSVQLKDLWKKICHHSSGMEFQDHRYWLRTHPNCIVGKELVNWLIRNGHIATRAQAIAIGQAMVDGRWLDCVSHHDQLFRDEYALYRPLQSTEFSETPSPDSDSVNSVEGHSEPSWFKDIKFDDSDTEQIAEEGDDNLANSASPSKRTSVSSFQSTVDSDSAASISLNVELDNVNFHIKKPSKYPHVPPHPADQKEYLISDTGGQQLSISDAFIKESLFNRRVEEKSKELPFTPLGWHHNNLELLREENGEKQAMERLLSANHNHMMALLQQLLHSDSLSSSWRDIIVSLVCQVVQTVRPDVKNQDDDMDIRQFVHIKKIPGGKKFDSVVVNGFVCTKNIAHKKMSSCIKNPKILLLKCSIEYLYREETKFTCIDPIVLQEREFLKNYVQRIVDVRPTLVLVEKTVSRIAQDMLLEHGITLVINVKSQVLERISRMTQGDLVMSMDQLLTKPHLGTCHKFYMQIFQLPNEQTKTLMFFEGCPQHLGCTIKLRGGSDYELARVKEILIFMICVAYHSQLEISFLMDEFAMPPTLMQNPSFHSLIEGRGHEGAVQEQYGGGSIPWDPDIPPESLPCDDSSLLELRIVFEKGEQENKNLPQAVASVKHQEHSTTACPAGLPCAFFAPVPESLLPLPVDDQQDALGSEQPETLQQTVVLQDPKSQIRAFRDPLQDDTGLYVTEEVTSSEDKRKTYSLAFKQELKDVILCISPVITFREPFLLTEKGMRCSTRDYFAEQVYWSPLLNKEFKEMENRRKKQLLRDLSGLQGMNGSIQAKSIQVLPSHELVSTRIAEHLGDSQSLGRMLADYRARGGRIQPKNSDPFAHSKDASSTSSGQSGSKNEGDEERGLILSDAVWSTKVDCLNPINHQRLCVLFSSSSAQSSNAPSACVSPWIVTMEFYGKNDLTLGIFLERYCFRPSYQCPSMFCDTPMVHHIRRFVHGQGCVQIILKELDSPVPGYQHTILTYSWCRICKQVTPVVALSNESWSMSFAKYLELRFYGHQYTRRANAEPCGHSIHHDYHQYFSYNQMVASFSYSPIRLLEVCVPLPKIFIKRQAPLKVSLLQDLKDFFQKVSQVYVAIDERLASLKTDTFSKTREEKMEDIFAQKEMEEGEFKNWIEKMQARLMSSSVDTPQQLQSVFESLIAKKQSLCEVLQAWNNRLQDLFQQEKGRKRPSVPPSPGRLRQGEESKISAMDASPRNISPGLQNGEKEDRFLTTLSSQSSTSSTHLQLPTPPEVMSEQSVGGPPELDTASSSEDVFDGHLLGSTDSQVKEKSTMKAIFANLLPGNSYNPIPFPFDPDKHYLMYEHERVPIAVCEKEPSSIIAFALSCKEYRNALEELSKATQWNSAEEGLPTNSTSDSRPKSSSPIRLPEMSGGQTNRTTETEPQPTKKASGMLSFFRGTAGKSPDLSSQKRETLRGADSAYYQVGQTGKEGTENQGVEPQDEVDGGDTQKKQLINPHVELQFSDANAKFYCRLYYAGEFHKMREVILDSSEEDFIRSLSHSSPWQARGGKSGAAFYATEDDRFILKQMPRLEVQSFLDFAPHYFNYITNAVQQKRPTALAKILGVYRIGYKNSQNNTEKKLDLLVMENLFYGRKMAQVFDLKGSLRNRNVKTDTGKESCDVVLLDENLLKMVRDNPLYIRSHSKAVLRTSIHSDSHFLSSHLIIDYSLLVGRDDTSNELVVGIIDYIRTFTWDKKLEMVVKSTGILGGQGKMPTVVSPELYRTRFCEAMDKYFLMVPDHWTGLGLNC
T1 sequence (Q9Y2I7 whole entry): as above

Turning to `Cc1cccc(/C=N/Nc2nc(N3CCOCC3)nc3c(-c4cnn(C)c4)cccc23)c1` [Example 209, (E)-4-(8-(1-methyl-1H-pyrazol-4-yl)-4-(2-(3-methylbenzylidene)hydrazinyl)quinazolin-2-yl)morpholine], the IC50 in data set [1] was at most 10 nM. In addition, the “ADP-Glo kinase assay (%, 10 nM)” value in data set [2] is reported as 94.99%. For the same compound, in data set [3], the Microsomal metabolic stability result was “medium”.

As for `Cc1ccc(C(=O)Cn2cnc3c(N/N=C/c4cccc(C)c4)nc(N4CCOCC4)nc32)cc1` [Example 42, (E)-2-(6-(2-(3-methylbenzylidene)hydrazinyl)-2-morpholino-9H-purin-9-yl)-1-(p-tolyl)ethan-1-one], the IC50 in data set [1] was at most 10 nM. Also, the “ADP-Glo kinase assay (%, 10 nM)” value in data set [2] was found to be 81.60%. In addition, in data set [3], the Microsomal metabolic stability result is on record as “Low (Low <8.8,)”.

Compound `Cc1cccc(/C=N/Nc2nc(N3CCOCC3)nc3c2nc(C)n3CC(=O)c2ccccn2)c1` [Example 157, (E)-2-(8-methyl-6-(2-(3-methylbenzylidene)hydrazinyl)-2-morpholino-9H-purin-9-yl)-1-(pyridin-2-yl)ethan-1-one] displayed a half-inhibitory concentration (IC50) in data set [1] of 10 to 20 nM. In data set [2], the “ADP-Glo kinase assay (%, 10 nM)” value turned out to be 71.16%. Besides, the Microsomal metabolic stability result in data set [3] is “Medium (Medium 8.8~48,)”.

Turning to `COc1ccc(C(=O)Cn2cnc3c(N/N=C/c4cccc(C)c4)nc(N4CCOCC4)nc32)cc1` [Example 39, (E)-1-(4-methoxyphenyl)-2-(6-(2-(3-methylbenzylidene)hydrazinyl)-2-morpholino-9H-purin-9-yl)ethan-1-one], in data set [1], the half-maximal inhibitory concentration (IC50) fell in the range of 10 to 20 nM. Also, the “ADP-Glo kinase assay (%, 10 nM)” value in data set [2] came to 74.99%. Besides, in data set [3], the Microsomal metabolic stability result is recorded as “Medium (Medium 8.8~48,)”.

`Cc1cccc(/C=N/Nc2nc(N3CCOCC3)nc3c2ncn3-c2cccc(Cl)c2)c1` [Example 122, (E)-4-(9-(3-chlorophenyl)-6-(2-(3-methylbenzylidene)hydrazinyl)-9H-purin-2-yl)morpholine] came in with an IC50 in data set [1] of at most 10 nM. Besides, in data set [2], the “ADP-Glo kinase assay (%, 10 nM)” value was 87.32%. Moreover, the Microsomal metabolic stability result in data set [3] was “Medium (Medium 8.8~48,)”.

In data set [1], `Cc1cccc(/C=N/Nc2nc(N3CCOCC3)nc3c2ncn3-c2sc(C)nc2C)c1` [Example 111, (E)-4-(9-(2,4-dimethylthiazol-5-yl)-6-(2-(3-methylbenzylidene)hydrazinyl)-9H-purin-2-yl)morpholine] gave an IC50 of at most 10 nM. Further, the “ADP-Glo kinase assay (%, 10 nM)” value in data set [2] turned out to be 89.77%. Also, in data set [3], the Microsomal metabolic stability entry is “Medium (Medium 8.8~48,)”.

In data set [1], `Cc1cccc(/C=N/Nc2nc(N3CCOCC3)nc3c2ncn3-c2cc(C)n(C)n2)c1` [Example 147, (E)-4-(9-(1,5-dimethyl-1H-pyrazol-3-yl)-6-(2-(3-methylbenzylidene)hydrazinyl)-9H-purin-2-yl)morpholine] returned an IC50 of at most 10 nM. Further, the “ADP-Glo kinase assay (%, 10 nM)” value in data set [2] is given as 88.80%. The Microsomal metabolic stability entry in data set [3] is on record as “Medium (Medium 8.8~48,)”.

In turn, `COc1ccc(-n2cnc3c(N/N=C/c4cccc(C)c4)nc(N4CCOCC4)nc32)cc1` [Example 120, (E)-4-(9-(4-methoxyphenyl)-6-(2-(3-methylbenzylidene)hydrazinyl)-9H-purin-2-yl)morpholine] registered an IC50 in data set [1] of at most 10 nM. Besides, the “ADP-Glo kinase assay (%, 10 nM)” value in data set [2] was determined as 88.76%. Besides, the Microsomal metabolic stability result in data set [3] is recorded as “medium”.

Take `Cc1cccc(/C=N/Nc2nc(N3CCOCC3)nc3c2ncn3-c2cccc(C)c2)c1` [Example 127, (E)-4-(6-(2-(3-methylbenzylidene)hydrazinyl)-9-(m-tolyl)-9H-purin-2-yl)morpholine]: the 50% inhibitory concentration (IC50) in data set [1] is at most 10 nM. Besides, the “ADP-Glo kinase assay (%, 10 nM)” value in data set [2] is reported as 84.12%. In data set [3], the Microsomal metabolic stability entry is “Low (Low <8.8,)”.

`Cc1cccc(/C=N/Nc2nc(N3CCOCC3)nc3c2ncn3-c2cccc(N(C)C)c2)c1` [Example 202, (E)-N,N-dimethyl-3-(6-(2-(3-methylbenzylidene)hydrazinyl)-2-morpholino-9H-purin-9-yl)aniline] returned an IC50 in data set [1] of at most 10 nM. Also, the “ADP-Glo kinase assay (%, 10 nM)” value in data set [2] came to 80.47%. In addition, the Microsomal metabolic stability entry in data set [3] was “low”.

`Cc1cccc(/C=N/Nc2nc(N3CCOCC3)nc3c(-c4ccncc4)cccc23)c1` [Example 212, (E)-4-(4-(2-(3-methylbenzylidene)hydrazinyl)-8-(pyridin-4-yl)quinazolin-2-yl)morpholine] came in with an IC50 in data set [1] of at most 10 nM. Also, the “ADP-Glo kinase assay (%, 10 nM)” value in data set [2] came out at 88.34%. The Microsomal metabolic stability result in data set [3] is recorded as “Low (Low <8.8,)”.

In turn, `Cc1cccc(/C=N/Nc2nc(N3CCOCC3)nc3c2ncn3-c2cccc(C)n2)c1` [Example 141, (E)-4-(6-(2-(3-methylbenzylidene)hydrazinyl)-9-(6-methylpyridin-2-yl)-9H-purin-2-yl)morpholine] gave an IC50 in data set [1] of at most 10 nM. Also, in data set [2], the “ADP-Glo kinase assay (%, 10 nM)” value is reported as 88.29%. In addition, the Microsomal metabolic stability entry in data set [3] is recorded as “medium”.

`Cc1cccc(/C=N/Nc2nc(N3CCOCC3)nc3c2ncn3-c2cccc(F)c2)c1` [Example 129, (E)-4-(9-(3-fluorophenyl)-6-(2-(3-methylbenzylidene)hydrazinyl)-9H-purin-2-yl)morpholine] had an IC50 in data set [1] of at most 10 nM. In data set [2], the “ADP-Glo kinase assay (%, 10 nM)” value was 89.94%. Besides, in data set [3], the Microsomal metabolic stability entry is listed as “Low (Low <8.8,)”.

Take `Cc1cccc(/C=N/Nc2nc(N3CCOCC3)nc3c2ncn3-c2ccnc(C)c2)c1` [Example 140, (E)-4-(6-(2-(3-methylbenzylidene)hydrazinyl)-9-(2-methylpyridin-4-yl)-9H-purin-2-yl)morpholine]: the IC50 in data set [1] was at most 10 nM. For the same compound, the “ADP-Glo kinase assay (%, 10 nM)” value in data set [2] is on record as 92.50%. For the same compound, the Microsomal metabolic stability entry in data set [3] was “Medium (Medium 8.8~48,)”.

For the compound `Cc1cccc(/C=N/Nc2nc(N3CCOCC3)nc3c2ncn3-c2cccc(OC(F)(F)F)c2)c1` [Example 128, (E)-4-(6-(2-(3-methylbenzylidene)hydrazinyl)-9-(3-(trifluoromethoxy)phenyl)-9H-purin-2-yl)morpholine], in data set [1], the IC50 is at most 10 nM. Also, in data set [2], the “ADP-Glo kinase assay (%, 10 nM)” value worked out at 65.10%. In addition, in data set [3], the Microsomal metabolic stability result is on record as “Low (Low <8.8,)”.

`Cc1cccc(/C=N/Nc2nc(N3CCOCC3)nc3c2ncn3-c2ccnc(C(F)(F)F)c2)c1` [Example 139, (E)-4-(6-(2-(3-methylbenzylidene)hydrazinyl)-9-(2-(trifluoromethyl)pyridin-4-yl)-9H-purin-2-yl)morpholine] had an IC50 in data set [1] of at most 10 nM. The “ADP-Glo kinase assay (%, 10 nM)” value in data set [2] is on record as 84.50%. Also, in data set [3], the Microsomal metabolic stability entry was “low”.

The compound `Cc1cccc(/C=N/Nc2nc(N3CCOCC3)nc3c2ncn3CC(=O)c2ccccc2Cl)c1` [Example 48, (E)-1-(2-chlorophenyl)-2-(6-(2-(3-methylbenzylidene)hydrazinyl)-2-morpholino-9H-purin-9-yl)ethan-1-one] showed an IC50 in data set [1] of at most 10 nM. Further, the “ADP-Glo kinase assay (%, 10 nM)” value in data set [2] is 90.25%. For the same compound, the Microsomal metabolic stability result in data set [3] is “Low (Low <8.8,)”.

`Cc1cccc(/C=N/Nc2nc(N3CCOCC3)nc3c2ncn3-c2cccc(C#N)c2)c1` [Example 126, (E)-3-(6-(2-(3-methylbenzylidene)hydrazinyl)-2-morpholino-9H-purin-9-yl)benzonitrile]: the IC50 in data set [1] is at most 10 nM. Also, the “ADP-Glo kinase assay (%, 10 nM)” value in data set [2] is 87.21%. Further, the Microsomal metabolic stability result in data set [3] is “Low (Low <8.8,)”.

The compound `Cc1cccc(/C=N/n2cnc3c(Nc4ccncc4)nc(N4CCOCC4)nc32)c1` [Example 166, (E)-9-((3-methylbenzylidene)amino)-2-morpholino-N-(pyridin-4-yl)-9H-purin-6-amine] gave an IC50 in data set [1] of at most 10 nM. Also, in data set [2], the “ADP-Glo kinase assay (%, 10 nM)” value turned out to be 90.77%. The Microsomal metabolic stability result in data set [3] was “medium”.

Regarding `O=C(Cn1cnc2c(N/N=C/c3c[nH]c4ccccc34)nc(N3CCOCC3)nc21)c1ccccn1` [Example 24, (E)-2-(6-(2-((1H-indol-3-yl)methylene)hydrazinyl)-2-morpholino-9H-purin-9-yl)-1-(pyridin-2-yl)ethan-1-one], the IC50 in data set [1] was 10 to 20 nM. In addition, the “ADP-Glo kinase assay (%, 10 nM)” value in data set [2] is 72.15%. For the same compound, the Microsomal metabolic stability result in data set [3] is on record as “Medium (Medium 8.8~48,)”.

With `Cc1cccc(/C=N/Nc2nc(N3CCOCC3)nc3c2ncn3CC(=O)c2ccccc2C(F)(F)F)c1` [Example 43, (E)-2-(6-(2-(3-methylbenzylidene)hydrazinyl)-2-morpholino-9H-purin-9-yl)-1-(2-(trifluoromethyl)phenyl)ethan-1-one], the IC50 in data set [1] was at most 10 nM. Besides, the “ADP-Glo kinase assay (%, 10 nM)” value in data set [2] is 80.86%. For the same compound, the Microsomal metabolic stability entry in data set [3] was “Medium (Medium 8.8~48,)”.
